Experimental data as given in PubChem BioAssay AID2060357 (Molecular Pharmacology Branch, DTP, NCI, 2025).
Where “and” joins values, the source holds several entries; their conditions need not be identical. Identical values can stand only once.

Test system: 292921-168-R-J2-PDC spheroids with HUVEC/MSC, viability
Experiment: Anticancer human tumor 292921-168-R-J2-PDC patient-derived pancreatic carcinoma cell line growth inhibition [TAK]
Conditions: for viability, T/C: stronger effect = lower value
From the text: Combinatorial screen of targeted agents with TAK-243 and ipatasertib in multi-cell type tumor spheroids
A high-throughput screen of multi-cell type tumor spheroids was designed to identify active combinations of targeted small molecules and TAK-243 or ipatasertib. Complex spheroids include a stromal component modeled by human endothelial cells (HUVEC) and fibroblasts modeled by human mesenchymal stem cells (MSCs). The concentration ranges selected for each drug and investigational agent were based upon clinically achievable concentrations if the clinical Cmax of the agent was known.
Compounds. The drugs and investigational agents: TAK-243 (785004), ipatasertib (767898), everolimus (733504), selumetinib (741078), bortezomib (756655), trametinib (758246), ixazomib (758254), vemurafenib (761431), dabrafenib (764134), sapanisertib (764658), alpelisib (765974), and copanlisib (816437), were obtained from the National Cancer Institute (NCI) Developmental Therapeutics Program Chemical Repository. The FDA-approved anticancer drug set is available from the NCI Developmental Therapeutics Program. […] The stock solutions were prepared in dimethyl sulfoxide (DMSO, Sigma-Aldrich, St. Louis, MO, cat. D2650) at 800-fold the tested concentration and stored at -70 degrees C prior to their use. All drugs and investigational agents were tested over a range starting from a high concentration at or near the clinical Cmax and decreasing in half-log increments. If the clinical Cmax for an agent had not been determined, the highest concentration tested was 10 microM.
NCI60 Cell Culture. NCI60 cell lines were obtained from the NCI Developmental Therapeutics Program Tumor Repository. For each lot of cells, the Repository performed Applied Biosystems AmpFLSTR Identifiler testing with PCR amplification to confirm consistency with the published Identifier STR profile for each cell line. Cells were kept in continuous culture for no more than 20 passages. The optimal seeding densities for each of the cell lines at each time point assessed were determined prior to performing the concentration response studies. Briefly, the NCI60 human tumor lines were grown as monolayers in RPMI 1640 medium supplemented with 10% FBS and 2 mmol/L L-glutamine.
An additional 2 lines were from the NCI60 cell line panel including melanomas, MALME-3M and SK-MEL-2. Pooled donor human umbilical vein endothelial cells (HUVEC, Lonza, cat. CC-2519) and human mesenchymal stem cells (hMSC, Lonza, cat. PT-2501) were purchased from Lonza (Walkersville, MD).
PDMR cell lines were grown in complete medium (DC medium): Dulbecco's modified Eagle's medium (DMEM)/F12 supplemented with 5% fetal bovine serum (FBS), 2 mM L-glutamine, 100 U/mL penicillin and 100 µg/ml streptomycin, 0.4 µg/ml hydrocortisone, 10 ng/ml epidermal growth factor (EGF) recombinant human protein, 24 µg/mL adenine, and 0.1 mg/mL primocin. During culture from frozen stock vials, PDMR cells were cultured in the same medium containing 10 µM Y-27632 (see Table 3). The PDCs were cultured in complete DMEM/F12 media without 10 microM Y-27632 dihydrochloride for at least two passages prior to the screen. The pooled donor HUVEC and hMSC were cultured in endothelial cell growth medium 2 (PromoCell, Heidelberg, Germany, cat. C-22011) and mesenchymal stem cell growth medium 2 (PromoCell, cat. C-28009), respectively. For all experiments, HUVEC and hMSC were used at passages </=5.
For the pre-screen, cell seeding densities were determined from a titration spanning the range from 5,000 to 313 cells per well. The mct-spheroids including 60% malignant cells, 25% HUVEC and 15% MSC dispensed as a mixture into U-bottom Ultra-Low Attachment 384-well plates (Corning, NY)
High-throughput Drug Combination Screening.
Prior to their inoculation into 384-well plates, malignant cells, HUVEC, and hMSC were removed from T flasks using TrypLE express (Thermo Fisher Scientific, cat. 12605036) and harvested by centrifugation for 5 min at 233 x g. […]

[1] = curve of first compound, second compound 0.3 µM
[2] = curve of first compound, second compound 0.949 µM
[3] = curve of first compound, second compound 3 µM
[4] = curve of first compound, second compound 9.49 µM
[5] = curve of first compound, second compound 30 µM
[6] = second compound 0.3 µM, first compound 0.000316 µM
[7] = second compound 0.3 µM, first compound 0.001 µM
[8] = second compound 0.3 µM, first compound 0.00316 µM
[9] = second compound 0.3 µM, first compound 0.01 µM
[10] = second compound 0.949 µM, first compound 0.000316 µM
[11] = second compound 0.949 µM, first compound 0.001 µM
[12] = second compound 0.949 µM, first compound 0.00316 µM
[13] = second compound 0.949 µM, first compound 0.01 µM
[14] = second compound 3 µM, first compound 0.000316 µM
[15] = second compound 3 µM, first compound 0.001 µM
[16] = second compound 3 µM, first compound 0.00316 µM
[17] = second compound 3 µM, first compound 0.01 µM
[18] = second compound 9.49 µM, first compound 0.000316 µM
[19] = second compound 9.49 µM, first compound 0.001 µM
[20] = second compound 9.49 µM, first compound 0.00316 µM
[21] = second compound 9.49 µM, first compound 0.01 µM
[22] = second compound 30 µM, first compound 0.000316 µM
[23] = second compound 30 µM, first compound 0.001 µM
[24] = second compound 30 µM, first compound 0.00316 µM
[25] = second compound 30 µM, first compound 0.01 µM
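Further: spheroids exposed to drugs for seven days before readout.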

SMILES	IC50 [1] [nM]	IC50 [2] [nM]	IC50 [3] [nM]	IC50 [4] [nM]	IC50 [5] [nM]	viability, T/C [6] [%]	viability, T/C [7] [%]	viability, T/C [8] [%]	viability, T/C [9] [%]	viability, T/C [10] [%]	viability, T/C [11] [%]	viability, T/C [12] [%]	viability, T/C [13] [%]	viability, T/C [14] [%]	viability, T/C [15] [%]	viability, T/C [16] [%]	viability, T/C [17] [%]	viability, T/C [18] [%]	viability, T/C [19] [%]	viability, T/C [20] [%]	also measured
CC(C)(C)c1nc(-c2cccc(NS(=O)(=O)c3c(F)cccc3F)c2F)c(-c2ccnc(N)n2)s1																					viability, T/C (compound 0.0316 µM): 109% and 122%; viability, T/C (compound 0.1 µM): 117% and 139%; viability, T/C (compound 0.316 µM): 111% and 110%; viability, T/C (compound 1 µM): 85% and 84.2%; viability, T/C (compound 3.16 µM): 62.5% and 67.1%; viability, T/C (compound 10 µM): 34% and 30.9%; IC50 (curve of compound): 4980 nM
CC(C)CC(NC(=O)C(Cc1ccccc1)NC(=O)c1cnccn1)B(O)O (configuration not stated) + CC(C)NCC(C(=O)N1CCN(c2ncnc3c2C(C)CC3O)CC1)c1ccc(Cl)cc1	4.58	4.11	4.07	3.99	< 0.0316	88.6	89.3	69	9.99	83.5	80.9	62.9	6.56	72.6	78.6	62.1	6.46	58.7	58.5	62.8	viability, T/C (second compound 0.3 µM, first compound 31.6 pM): 83.7%; viability, T/C (second compound 0.3 µM, first compound 0.0001 µM): 86.5%; viability, T/C (second compound 0.949 µM, first compound 31.6 pM): 80.2%; viability, T/C (second compound 0.949 µM, first compound 0.0001 µM): 81.7%; viability, T/C (second compound 3 µM, first compound 31.6 pM): 73.9%; viability, T/C (second compound 3 µM, first compound 0.0001 µM): 76.1%; viability, T/C (second compound 9.49 µM, first compound 31.6 pM): 64.1%; viability, T/C (second compound 9.49 µM, first compound 0.0001 µM): 63%; viability, T/C [21]: 4.62%; viability, T/C (second compound 30 µM, first compound 31.6 pM): 41.7%; viability, T/C (second compound 30 µM, first compound 0.0001 µM): 40.5%; viability, T/C [22]: 41.3%; viability, T/C [23]: 42.8%; viability, T/C [24]: 38.7%; viability, T/C [25]: 6.44%
COC1CC2CCC(C)C(O)(O2)C(=O)C(=O)N2CCCCC2C(=O)OC(C(C)CC2CCC(OCCO)C(OC)C2)CC(=O)C(C)C=C(C)C(O)C(OC)C(=O)C(C)CC(C)C=CC=CC=C1C (configuration not stated) + CC(C)NCC(C(=O)N1CCN(c2ncnc3c2C(C)CC3O)CC1)c1ccc(Cl)cc1	5.01	4.77	1.41	< 0.316	< 0.316	64.3	56.9	49.4	50.6	65.7	59.9	50.2	46.6	60	53.3	45.1	42.4	47.9	39.8	35.7	viability, T/C (second compound 0.3 µM, first compound 0.0316 µM): 45.3%; viability, T/C (second compound 0.3 µM, first compound 0.1 µM): 46.1%; viability, T/C (second compound 0.949 µM, first compound 0.0316 µM): 44.9%; viability, T/C (second compound 0.949 µM, first compound 0.1 µM): 45.2%; viability, T/C (second compound 3 µM, first compound 0.0316 µM): 43.8%; viability, T/C (second compound 3 µM, first compound 0.1 µM): 41.6%; viability, T/C [21]: 33.2%; viability, T/C (second compound 9.49 µM, first compound 0.0316 µM): 32.7%; viability, T/C (second compound 9.49 µM, first compound 0.1 µM): 32.9%; viability, T/C [22]: 33.4%; viability, T/C [23]: 30.6%; viability, T/C [24]: 29%; viability, T/C [25]: 26.3%; viability, T/C (second compound 30 µM, first compound 0.0316 µM): 26.2%; viability, T/C (second compound 30 µM, first compound 0.1 µM): 24.3%
